Assay results published in ChEMBL document CHEMBL3085759, “Structure-activity relationship (SAR) and preliminary mode of action studies of 3-substituted benzylthioquinolinium iodide as anti-opportunistic infection agents” (Eur J Med Chem, 2013).

What was measured:
Staphylococcus aureus [1] = assay: Antimicrobial activity against Staphylococcus aureus ATCC 29213 by Alamar blue method; type: functional, organism-based; settings: Staphylococcus aureus, ATCC 29213; for IC50: read-out: IC50
Nakaseomyces glabratus = assay: Antimicrobial activity against Candida glabrata by Alamar blue method; type: functional, organism-based
Staphylococcus aureus [2] = assay: Antimicrobial activity against methicillin-resistant Staphylococcus aureus ATCC 33591 by Alamar blue method; type: functional, organism-based
Pichia kudriavzevii = assay: Antimicrobial activity against Candida krusei ATCC 6258 by Alamar blue method; type: functional, organism-based
Cryptococcus neoformans = assay: Antimicrobial activity against Cryptococcus neoformans ATCC 90113 by Alamar blue method; type: functional, organism-based
Aspergillus fumigatus = assay: Antimicrobial activity against Aspergillus fumigatus ATCC 204305 by Alamar blue method; type: functional, organism-based
[3] = tested on: Mycobacterium intracellulare; assay: Antimicrobial activity against Mycobacterium intracellulare ATCC 23068 by Alamar blue method; type: functional, organism-based
Candida albicans = assay: Antimicrobial activity against Candida albicans ATCC 90028 by Alamar blue method; type: functional, organism-based
Vero = assay: Cytotoxicity against african green monkey Vero cells at 10 ug/ml after 48 hrs by Neutral Red dye assay; type: cell-based; settings: chlorocebus sabaeus

Structure (SMILES) | MBC (Staphylococcus aureus [1]) [µg/mL] | MIC (Staphylococcus aureus [1]) [µg/mL] | IC50 (Staphylococcus aureus [1]) [µg/mL] | IC50 (Nakaseomyces glabratus) [µg/mL] | MIC (Nakaseomyces glabratus) [µg/mL] | IC50 (Staphylococcus aureus [2]) [µg/mL] | MBC (Staphylococcus aureus [2]) [µg/mL] | MIC (Staphylococcus aureus [2]) [µg/mL] | IC50 (Pichia kudriavzevii) [µg/mL] | MIC (Pichia kudriavzevii) [µg/mL] | IC50 (Cryptococcus neoformans) [µg/mL] | MFC (Cryptococcus neoformans) [µg/mL] | MIC (Cryptococcus neoformans) [µg/mL] | IC50 (Aspergillus fumigatus) [µg/mL] | MFC (Aspergillus fumigatus) [µg/mL] | MIC (Aspergillus fumigatus) [µg/mL] | IC50 [3] [µg/mL] | MBC [3] [µg/mL] | MIC [3] [µg/mL] | IC50 (Candida albicans) [µg/mL] | also measured
Fc1ccc(Oc2cc3ccccc3[n+](CCCCCC3CCCCC3)c2)cc1.[I-] | > 20 | 20 | 14 | > 20 | > 20 | 14 | > 20 | > 20 | > 20 | > 20 | 8.62 | 10 | 10 | > 20 | > 20 | > 20 | 20 | 20 | 20 | > 20 | MFC (Nakaseomyces glabratus): > 20 µg/mL; MFC (Pichia kudriavzevii): > 20 µg/mL; MFC (Candida albicans): > 20 µg/mL; MIC (Candida albicans): > 20 µg/mL
COc1cccc(CSc2cc3ccccc3[n+](CCCCCC3CCCCC3)c2)c1.[I-] | 1.3 | 0.63 | 0.28 | 9.7 | 20 | 0.33 | 1.3 | 0.63 | 0.88 | 2.5 | 0.35 | 2.5 | 0.63 | 10.9 | > 20 | 20 | 3.7 | 5 | 5 | 4.8 | Activity (Vero): Non-toxic; MFC (Nakaseomyces glabratus): 20 µg/mL; MFC (Pichia kudriavzevii): 2.5 µg/mL; MFC (Candida albicans): 10 µg/mL; MIC (Candida albicans): 10 µg/mL
COc1ccccc1CSc1cc2ccccc2[n+](CCCCCC2CCCCC2)c1.[I-] | 5 | 0.63 | 0.31 | 8.2 | 20 | 0.35 | 5 | 0.63 | 0.75 | 2.5 | 0.34 | 2.5 | 0.63 | 9.8 | > 20 | 20 | 3 | 5 | 5 | 2.8 | Activity (Vero): Non-toxic; MFC (Nakaseomyces glabratus): 20 µg/mL; MFC (Pichia kudriavzevii): 2.5 µg/mL; MFC (Candida albicans): 5 µg/mL; MIC (Candida albicans): 5 µg/mL
Clc1ccc(CSc2cc3ccccc3[n+](CCCCCC3CCCCC3)c2)cc1Cl.[I-] | 2.5 | 2.5 | 0.5 | 3 | 5 | 0.18 | 1.3 | 1.3 | 0.3 | 1.3 | 0.45 | 0.63 | 0.63 | 2.8 | 5 | 5 | 4.5 | 10 | 5 | 1.1 | Activity (Vero): Non-toxic; MFC (Nakaseomyces glabratus): 5 µg/mL; MFC (Pichia kudriavzevii): 1.3 µg/mL; MFC (Candida albicans): 2.5 µg/mL; MIC (Candida albicans): 2.5 µg/mL
COc1ccc(CSc2cc3ccccc3[n+](CCCCCC3CCCCC3)c2)cc1.[I-] | 2.5 | 0.31 | 0.18 | 3 | 10 | 0.36 | 2.5 | 0.63 | 0.37 | 0.63 | 0.18 | 0.63 | 0.31 | 5.4 | 10 | 10 | 1.7 | 2.5 | 2.5 | 1.2 | Activity (Vero): Non-toxic; MFC (Nakaseomyces glabratus): 10 µg/mL; MFC (Pichia kudriavzevii): 1.3 µg/mL; MFC (Candida albicans): 5 µg/mL; MIC (Candida albicans): 5 µg/mL
Cc1cc(C)c(CSc2cc3ccccc3[n+](CCCCCC3CCCCC3)c2)c(C)c1.[I-] | 1.3 | 0.63 | 0.34 | 1.7 | 5 | 0.23 | 0.63 | 0.63 | 0.44 | 0.63 | 0.32 | 0.63 | 0.63 | 2.3 | 5 | 5 | 2.9 | 5 | 5 | > 20 | Activity (Vero): Non-toxic; MFC (Nakaseomyces glabratus): 5 µg/mL; MFC (Pichia kudriavzevii): 0.63 µg/mL; MFC (Candida albicans): > 20 µg/mL; MIC (Candida albicans): > 20 µg/mL
FC(F)(F)c1ccccc1CSc1cc2ccccc2[n+](CCCCCC2CCCCC2)c1.[I-] | 1.3 | 0.31 | 0.19 | 2.7 | 5 | 0.22 | 1.3 | 0.63 | 0.43 | 1.3 | 0.42 | 1.3 | 0.63 | 3.7 | 10 | 5 | 3.4 | 5 | 5 | 0.97 | Activity (Vero): Non-toxic; MFC (Candida albicans): 5 µg/mL; MIC (Candida albicans): 2.5 µg/mL
